The source of these data is patent US8993604B2, “Treatment and prevention of dengue virus infections” (Siga Technologies, Inc., priority 2009, dated 2015).

The test system of the first experiment is Dengue-2 (Strain New Guinea C). The experiment can be described thus: Viral yield assay in Vero cells. The experiment is classed as cell-based. The note with it: Dengue virus, Vero, 48 h, read-out: Activity (anti-dengue 2 viral activity, EC50 class). As for the experimental part: Compounds that were active in the primary screen were tested for activity in viral yield assays. […] Vero cells in 12-well plates were infected with dengue-2 virus at a multiplicity of infection (MOI) of 0.1, treated with compound (or DMSO as a control), incubated at 37° C., harvested 48 hours post infection and titered on Vero cells as described above. The EC50 was calculated through ExcelFit. Activities against other serotypes of dengue virus were determined in a similar way.
The EC50 is the midpoint of the concentration-response curve. `Cc1ccc2sc(-c3ccc(NC(=O)c4ccccc4Cl)cc3)nc2c1` [Compound 49, 2-Chloro-N-[4-(5-methyl-benzothiazol-2-yl)-phenyl]-benzamide]: the EC50 was more than 25 µM.

The experiment is the same for the next values; noted with them: Dengue virus; Vero cells, MOI 0.1, harvested 48 hours post infection; read-out: Activity (anti-dengue 2 viral activity, EC50 class).
As for `O=C(Nc1ccc(-c2nc3ccccc3s2)c(O)c1)c1ccc(F)cc1` [Compound 22, N-(4-Benzothiazol-2-yl-3-hydroxy-phenyl)-4-fluoro-benzamide], the EC50 lay in the range of 10 to 25 µM.

Consider `Cc1ccccc1C(=O)Nc1ccc(-c2nc3ccccc3s2)c(O)c1` [Compound 23, N-(4-Benzothiazol-2-yl-3-hydroxy-phenyl)-2-methyl-benzamide], for which the EC50 was 10 to 25 µM.

Turning to `O=C(Nc1ccc(-c2nc3ccccc3s2)c(O)c1)c1cccc(F)c1` [Compound 24, N-(4-Benzothiazol-2-yl-3-hydroxy-phenyl)-3-fluoro-benzamide], the 50% effective concentration (EC50) fell in the range of 10 to 25 µM.

Take `CCOc1ccc(C(=O)Nc2cccc(-c3nc4ccccc4s3)c2C)cc1[N+](=O)O` [Compound 25, N-(3-Benzothiazol-2-yl-2-methyl-phenyl)-4-ethoxy-3-nitro-benzamide]: the EC50 was in the range of 10 to 25 µM.

Take `Cc1ccccc1C(=O)Nc1ccc(-c2nc3ccccc3s2)cc1` [Compound 26, N-(4-Benzothiazol-2-yl-phenyl)-2-methyl-benzamide]: the EC50 lay within 10 to 25 µM.

Take `COc1ccc(C(=O)Nc2ccc(-c3nc4ccccc4s3)c(O)c2)cc1OC` [Compound 27, N-(4-Benzothiazol-2-yl-3-hydroxy-phenyl)-3,4-dimethoxy-benzamide]: the EC50 is 10 to 25 µM.

`COc1ccc(Br)cc1C(=O)Nc1ccc(-c2nc3ccccc3s2)cc1` [Compound 28, N-(4-Benzothiazol-2-yl-phenyl)-5-bromo-2-methoxy-benzamide]: the EC50 was in the range of 10 to 25 µM.

Regarding `Cc1ccc2nc(-c3ccc(NC(=O)c4ccc(CN5CCOCC5)cc4)cc3)sc2c1` [Compound 29, N-[4-(6-Methyl-benzothiazol-2-yl)-phenyl]-4-morpholin-4-ylmethyl-benzamide], the concentration for a half-maximal effect (EC50) is 10 to 25 µM.

`CC(=O)Oc1cccc(C(=O)Nc2ccc(-c3nc4ccccc4s3)cc2)c1` [Compound 30, Acetic acid 3-(4-benzothiazol-2-yl-phenylcarbamoyl)-phenyl ester]: the half-maximal effective concentration (EC50) was in the range of 10 to 25 µM.

Turning to `COc1ccc(Cl)cc1C(=O)Nc1ccc(-c2nc3ccccc3s2)cc1` [Compound 31, N-(4-Benzothiazol-2-yl-phenyl)-5-chloro-2-methoxy-benzamide], the half-maximal effective concentration (EC50) was 10 to 25 µM.

Regarding `COc1ccc(C(=O)Nc2ccc(Cl)c(-c3nc4ccccc4s3)c2)cc1OC` [Compound 32, N-(3-Benzothiazol-2-yl-4-chloro-phenyl)-3,4-dimethoxy-benzamide], the half-maximal effective concentration (EC50) was 10 to 25 µM.

As for `Cc1ccc(C(=O)Nc2cccc(-c3nc4ccccc4s3)c2)c(Cl)c1` [Compound 33, N-(3-Benzothiazol-2-yl-phenyl)-2-chloro-4-methyl-benzamide], the EC50 lay within 10 to 25 µM.

Take `O=C(Nc1ccccc1-c1nc2ccccc2s1)c1ccccc1[N+](=O)[O-]` [Compound 34, N-(2-Benzothiazol-2-yl-phenyl)-2-nitro-benzamide]: the concentration for a half-maximal effect (EC50) fell in the range of 10 to 25 µM.

Take `O=C(Nc1ccc(-c2nc3ccccc3s2)cc1)c1c(F)c(F)c(F)c(F)c1F` [Compound 36, N-(4-Benzothiazol-2-yl-phenyl)-2,3,4,5,6-pentafluoro-benzamide]: the EC50 lay in the range of 10 to 25 µM.

Take `CCCC(=O)Nc1ccc(C(=O)Nc2ccc(-c3nc4ccc(C)cc4s3)cc2)cc1` [Compound 37, 4-Butyrylamino-N-[4-(6-methyl-benzothiazol-2-yl)-phenyl]-benzamide]: the EC50 lay in the range of 10 to 25 µM.

Regarding `Cc1cc(C)cc(C(=O)Nc2ccc(-c3nc4ccccc4s3)cc2C)c1` [Compound 38, N-(4-Benzothiazol-2-yl-2-methyl-phenyl)-3,5-dimethyl-benzamide], the concentration giving a half-maximal response (EC50) was in the range of 10 to 25 µM.

Consider `Cc1cccc(C(=O)Nc2ccc(-c3nc4ccccc4s3)c(Cl)c2)c1` [Compound 39, N-(4-Benzothiazol-2-yl-3-chloro-phenyl)-3-methyl-benzamide], for which the EC50 was in the range of 10 to 25 µM.

Regarding `Cc1ccc2nc(-c3ccc(NC(=O)c4ccc(S(=O)(=O)N5CCc6ccccc65)cc4)cc3)sc2c1` [Compound 41, 4-(2,3-Dihydro-indole-1-sulfonyl)-N-[4-(6-methyl-benzothiazol-2-yl)-phenyl]-benzamide], the EC50 was more than 25 µM.

On to `Cc1ccc2sc(-c3ccc(NC(=O)c4ccc(Cl)cc4)cc3)nc2c1` [Compound 42, 4-Chloro-N-[4-(5-methyl-benzothiazol-2-yl)-phenyl]-benzamide], for which the EC50 is more than 25 µM.

On to `Cc1ccc(-c2nc3ccccc3s2)cc1NC(=O)c1cccc(I)c1` [Compound 43, N-(5-Benzothiazol-2-yl-2-methyl-phenyl)-3-iodo-benzamide], for which the EC50 was more than 25 µM.

On to `O=C(Nc1ccc(-c2nc3ccccc3s2)cc1)c1cc(I)ccc1I` [Compound 44, N-(4-Benzothiazol-2-yl-phenyl)-2,5-diiodo-benzamide], for which the EC50 was more than 25 µM.

Consider `O=C(Nc1cccc(-c2nc3ccccc3s2)c1)c1cc(I)ccc1I` [Compound 45, N-(3-Benzothiazol-2-yl-phenyl)-2,5-diiodo-benzamide], for which the 50% effective concentration (EC50) was more than 25 µM.

On to `CCOC(=O)N1CCN(S(=O)(=O)c2ccc(C(=O)Nc3cccc(-c4nc5ccccc5s4)c3)cc2)CC1` [Compound 46, 4-[4-(3-Benzothiazol-2-yl-phenylcarbamoyl)-benzenesulfonyl]-piperazine-1-carboxylic acid ethyl ester], for which the concentration for a half-maximal effect (EC50) is more than 25 µM.

On to `CCOC(=O)N1CCN(S(=O)(=O)c2ccc(C(=O)Nc3ccccc3-c3nc4ccccc4s3)cc2)CC1` [Compound 47, 4-[4-(2-Benzothiazol-2-yl-phenylcarbamoyl)-benzenesulfonyl]-piperazine-1-carboxylic acid ethyl ester], for which the EC50 is more than 25 µM.

With `COc1cc(C(=O)Nc2ccc(-c3nc4ccccc4s3)cc2)cc(OC)c1OC` [Compound 48, N-(4-Benzothiazol-2-yl-phenyl)-3,4,5-trimethoxy-benzamide], the EC50 was more than 25 µM.

For `Cc1ccc(-c2nc3ccccc3s2)cc1NC(=O)c1ccc(F)cc1` [Compound 50, N-(5-Benzothiazol-2-yl-2-methyl-phenyl)-4-fluoro-benzamide], the EC50 was more than 25 µM.

For the compound `COc1cc(C(=O)Nc2cc(-c3nc4ccccc4s3)ccc2C)cc(OC)c1OC` [Compound 51, N-(5-Benzothiazol-2-yl-2-methyl-phenyl)-3,4,5-trimethoxy-benzamide], the EC50 was more than 25 µM.

As to `COc1ccccc1C(=O)Nc1cc(-c2nc3ccccc3s2)ccc1C` [Compound 52, N-(5-Benzothiazol-2-yl-2-methyl-phenyl)-2-methoxy-benzamide], the EC50 is more than 25 µM.

`O=C(Nc1ccc(O)c(-c2nc3ccccc3s2)c1)c1ccc([N+](=O)[O-])cc1` [Compound 53, N-(3-Benzothiazol-2-yl-4-hydroxy-phenyl)-4-nitro-benzamide]: the EC50 was more than 25 µM.

For the compound `O=C(Nc1ccc(-c2nc3ccccc3s2)c(O)c1)c1ccccc1F` [Compound 54, N-(4-Benzothiazol-2-yl-3-hydroxy-phenyl)-2-fluoro-benzamide], the EC50 is more than 25 µM.

In the case of `Cc1ccccc1C(=O)Nc1ccc(O)c(-c2nc3ccccc3s2)c1` [Compound 55, N-(3-Benzothiazol-2-yl-4-hydroxy-phenyl)-2-methyl-benzamide], the EC50 is more than 25 µM.

`O=C(Nc1ccc(O)c(-c2nc3ccccc3s2)c1)c1ccccc1` [Compound 56, N-(3-Benzothiazol-2-yl-4-hydroxy-phenyl)-benzamide]: the 50% effective concentration (EC50) is more than 25 µM.

Take `O=C(Nc1ccc(O)c(-c2nc3ccccc3s2)c1)c1ccccc1F` [Compound 57, N-(3-Benzothiazol-2-yl-4-hydroxy-phenyl)-2-fluoro-benzamide]: the 50% effective concentration (EC50) is more than 25 µM.

Turning to `COc1cccc(C(=O)Nc2ccc(O)c(-c3nc4ccccc4s3)c2)c1` [Compound 58, N-(3-Benzothiazol-2-yl-4-hydroxy-phenyl)-3-methoxy-benzamide], the concentration giving a half-maximal response (EC50) was more than 25 µM.

Turning to `O=C(Nc1ccc(-c2nc3ccccc3s2)c(O)c1)c1ccccc1` [Compound 59, N-(4-Benzothiazol-2-yl-3-hydroxy-phenyl)-benzamide], the EC50 is more than 25 µM.

Consider `COc1ccc(C(=O)Nc2ccc(-c3nc4ccccc4s3)c(O)c2)cc1[N+](=O)[O-]` [Compound 60, N-(4-Benzothiazol-2-yl-3-hydroxy-phenyl)-4-methoxy-3-nitro-benzamide], for which the EC50 is more than 25 µM.

As to `O=C(Nc1ccc(O)c(-c2nc3ccccc3s2)c1)c1ccc(F)cc1` [Compound 61, N-(3-Benzothiazol-2-yl-4-hydroxy-phenyl)-4-fluoro-benzamide], the EC50 was more than 25 µM.

Consider `O=C(Nc1ccc(O)c(-c2nc3ccccc3s2)c1)c1cccc(F)c1` [Compound 62, N-(3-Benzothiazol-2-yl-hydroxy-phenyl)-3-fluoro-benzamide], for which the concentration for a half-maximal effect (EC50) was more than 25 µM.

For the compound `Cc1c(NC(=O)c2cc([N+](=O)[O-])ccc2Cl)cccc1-c1nc2ccccc2s1` [Compound 63, N-(3-Benzothiazol-2-yl-2-methyl-phenyl)-2-chloro-5-nitro-benzamide], the EC50 was more than 25 µM.

Consider `COc1ccc(C(=O)Nc2cccc(-c3nc4ccccc4s3)c2C)cc1[N+](=O)O` [Compound 64, N-(3-Benzothiazol-2-yl-2-methyl-phenyl)-4-methoxy-3-nitro-benzamide], for which the EC50 is more than 25 µM.

With `Cc1c(NC(=O)c2ccc([N+](=O)[O-])cc2)cccc1-c1nc2ccccc2s1` [Compound 65, N-(3-Benzothiazol-2-yl-2-methyl-phenyl)-4-nitro-benzamide], the concentration for a half-maximal effect (EC50) is more than 25 µM.

In the case of `Cc1c(NC(=O)c2ccccc2F)cccc1-c1nc2ccccc2s1` [Compound 66, N-(3-Benzothiazol-2-yl-2-methyl-phenyl)-2-fluoro-benzamide], the EC50 was more than 25 µM.
